Data taken from patent US8541460B2, “PDK-1/Akt signaling inhibitors” (The Ohio State University, priority 2003, dated 2013).

Tests used:
NCI-H522 = assay: NCI DTP cell line screen (SRB), Non-Small Cell Lung Cancer; type: cell-based, human
Method: (§1) Screening of compounds 70 and 71 against several cancer cell lines The human tumor cell lines of the cancer screening panel are grown in RPMI 1640 medium containing 5% fetal bovine serum and 2 mM L-glutamine. For a typical screening experiment, cells are inoculated into 96 well microtiter plates in 100 μL at plating densities ranging from 5,000 to 40,000 cells/well depending on the doubling time of individual cell lines. After cell inoculation, the microtiter plates are incubated at 37° C., 5% CO2, 95% air and 100% relative humidity for 24 h prior to addition of experimental drugs.
(§2) After 24 h, two plates of each cell line are fixed in situ with TCA, to represent a measurement of the cell population for each cell line at the time of drug addition (Tz). Experimental drugs are solubilized in dimethyl sulfoxide at 400-fold the desired final maximum test concentration and stored frozen prior to use. At the time of drug addition, an aliquot of frozen concentrate is thawed and diluted to twice the desired final maximum test concentration with complete medium containing 50 μg/ml gentamicin. Additional four, 10-fold or ½ log serial dilutions are made to provide a total of five drug concentrations plus control. Aliquots of 100 μl of these different drug dilutions are added to the appropriate microtiter wells already containing 100 μl of medium, resulting in the required final drug concentrations.
(§3) Following drug addition, the plates are incubated for an additional 48 h at 37° C., 5% CO2, 95% air, and 100% relative humidity. For adherent cells, the assay is terminated by the addition of cold TCA. Cells are fixed in situ by the gentle addition of 50 μl of cold 50% (w/v) TCA (final concentration, 10% TCA) and incubated for 60 minutes at 4° C. The supernatant is discarded, and the plates are washed five times with tap water and air dried. Sulforhodamine B (SRB) solution (100 μl) at 0.4% (w/v) in 1% acetic acid is added to each well, and plates are incubated for 10 minutes at room temperature. After staining, unbound dye is removed by washing five times with 1% acetic acid and the plates are air dried. Bound stain is subsequently solubilized with 10 mM trizma base, and the absorbance is read on an automated plate reader at a wavelength of 515 nm. For suspension cells, the methodology is the same except that the assay is terminated by fixing settled cells at the bottom of the wells by gently adding 50 μl of 80% TCA (final concentration, 16% TCA). Using the seven absorbance measurements [time zero, (Tz), control growth, (C), and test growth in the presence of drug at the five concentration levels (Ti)], the percentage growth is calculated at each of the drug concentrations levels. Percentage growth inhibition is calculated as: [(Ti−Tz)/(C−Tz)]×100 for concentrations for which Ti>/=Tz [(Ti−Tz)/Tz]×100 for concentrations for which Ti<Tz
(§4) Three dose response parameters are calculated for each experimental agent. […] The drug concentration resulting in total growth inhibition (TGI) is calculated from Ti=Tz. […] Values are calculated for each of these three parameters if the level of activity is reached; however, if the effect is not reached or is exceeded, the value for that parameter is expressed as greater or less than the maximum or minimum concentration tested.
(§5) The methods described were used to test compounds 70 and 71 on a panel of sixty cell lines under a screening service provided by the Developmental Therapeutics Program at the National Institutes of Health. Shown in FIG. 1C are 1, RPMI-8226 leukemia cells; 2; NCI-H322M non-small cell lung cancer cells; 3, HT29 colon cancer cells; 4, U251 CNS cancer cells; 5, SK-MEL-28 melanoma cancer cells; 6, SK-OV-3 ovarian cancer cells; 7, RXF 393 renal cancer cells; 8, PC-3 prostate cancer cells; 9, MDA-MB-231 breast cancer cells.

HCT-116 = assay: NCI DTP cell line screen (SRB), Colon Cancer; type: cell-based
Method: as §1, §2, §3, §4, §5

KM12 = assay: NCI DTP cell line screen (SRB), Colon Cancer; type: cell-based
Method: as §1, §2, §3, §4, §5

SW-620 = assay: NCI DTP cell line screen (SRB), Colon Cancer; type: cell-based
Method: as §1, §2, §3, §4, §5

A498 = assay: NCI DTP cell line screen (SRB), Renal Cancer; type: cell-based
Method: as §1, §2, §3, §4, §5

SN12C = assay: NCI DTP cell line screen (SRB), Renal Cancer; type: cell-based
Method: as §1, §2, §3, §4, §5

MDA-MB-231/ATCC = assay: NCI DTP cell line screen (SRB), Breast Cancer; type: cell-based
Method: as §1, §2, §3, §4, §5

T-47D = assay: NCI DTP cell line screen (SRB), Breast Cancer; type: cell-based
Method: as §1, §2, §3, §4, §5

## NCC(=O)Nc1ccc(-n2nc(C(F)(F)F)cc2-c2ccc3c(ccc4ccccc43)c2)cc1 [Compound 70, 2-Amino-N-{4-[5-(2-phenanthrenyl)-3-(trifluoromethyl)-1H-pyrazol-1-yl]-phenyl}-acetamide]
NCI-H522; Log10 Concentration −4.0
  Percent Growth: −37%
NCI-H522; Log10 Concentration −5.0
  Percent Growth: −66%
NCI-H522; Log10 Concentration −6.0
  Percent Growth: 97%
NCI-H522; Log10 Concentration −7.0
  Percent Growth: 122%
NCI-H522; Log10 Concentration −8.0
  Percent Growth: 110%
NCI-H522; in M (unit assumed)
  TGI: 3.94E−06
HCT-116; Log10 Concentration −4.0
  Percent Growth: 5%
HCT-116; Log10 Concentration −5.0
  Percent Growth: −9%
HCT-116; Log10 Concentration −6.0
  Percent Growth: 57%
HCT-116; Log10 Concentration −7.0
  Percent Growth: 93%
HCT-116; Log10 Concentration −8.0
  Percent Growth: 107%
KM12
  TGI: 2.67E−06
KM12; Log10 Concentration −4.0
  Percent Growth: −51%
KM12; Log10 Concentration −5.0
  Percent Growth: −73%
KM12; Log10 Concentration −6.0
  Percent Growth: 54%
KM12; Log10 Concentration −7.0
  Percent Growth: 91%
KM12; Log10 Concentration −8.0
  Percent Growth: 98%
SW-620
  TGI: 4.23E−06
SW-620; Log10 Concentration −4.0
  Percent Growth: −28%
SW-620; Log10 Concentration −5.0
  Percent Growth: −32%
SW-620; Log10 Concentration −6.0
  Percent Growth: 54%
SW-620; Log10 Concentration −7.0
  Percent Growth: 100%
SW-620; Log10 Concentration −8.0
  Percent Growth: 100%
A498
  TGI: 5.75E−06
A498; Log10 Concentration −4.0
  Percent Growth: −54%
A498; Log10 Concentration −5.0
  Percent Growth: −30%
A498; Log10 Concentration −6.0
  Percent Growth: 95%
A498; Log10 Concentration −7.0
  Percent Growth: 126%
A498; Log10 Concentration −8.0
  Percent Growth: 98%
SN12C
  TGI: 3.51E−06
SN12C; Log10 Concentration −4.0
  Percent Growth: −47%
SN12C; Log10 Concentration −5.0
  Percent Growth: −65%
SN12C; Log10 Concentration −6.0
  Percent Growth: 78%
SN12C; Log10 Concentration −7.0
  Percent Growth: 94%
SN12C; Log10 Concentration −8.0
  Percent Growth: 96%
MDA-MB-231/ATCC
  TGI: 2.77E−06
MDA-MB-231/ATCC; Log10 Concentration −4.0
  Percent Growth: −52%
MDA-MB-231/ATCC; Log10 Concentration −5.0
  Percent Growth: −73%
MDA-MB-231/ATCC; Log10 Concentration −6.0
  Percent Growth: 58%
MDA-MB-231/ATCC; Log10 Concentration −7.0
  Percent Growth: 71%
MDA-MB-231/ATCC; Log10 Concentration −8.0
  Percent Growth: 100%
T-47D
  TGI: 4.21E−06
T-47D; Log10 Concentration −4.0
  Percent Growth: −44%
T-47D; Log10 Concentration −5.0
  Percent Growth: −52%
T-47D; Log10 Concentration −6.0
  Percent Growth: 86%
T-47D; Log10 Concentration −7.0
  Percent Growth: 109%
T-47D; Log10 Concentration −8.0
  Percent Growth: 84%
